Reference: PubChem BioAssay (NCI)
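Dose response: 5 concentrations. Exposure: 48 h. Format: 96-well plates. Endpoint: linear interpolation; highest concentration if not reached. TGI: total growth inhibition.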

Columns and labels:
Assay in all cases: growth of human tumour cells (NCI), 48 h
HT29 colon = tested on: HT29 colon
OVCAR-3 ovarian = tested on: OVCAR-3 ovarian
HCT-116 colon = tested on: HCT-116 colon
OVCAR-4 ovarian = tested on: OVCAR-4 ovarian
MCF7 breast = tested on: MCF7 breast
SR leukemia = tested on: SR leukemia
MALME-3M melanoma = tested on: MALME-3M melanoma
TK-10 renal = tested on: TK-10 renal
MDA-MB-231 breast = tested on: MDA-MB-231 breast
DU-145 prostate = tested on: DU-145 prostate
786-0 renal = tested on: 786-0 renal
UACC-257 melanoma = tested on: UACC-257 melanoma
MDA-MB-435 = tested on: MDA-MB-435
HOP-62 NSCLC = tested on: HOP-62 NSCLC
T-47D breast = tested on: T-47D breast
MDA-N = tested on: MDA-N
EKVX NSCLC = tested on: EKVX NSCLC
SNB-75 CNS = tested on: SNB-75 CNS
HCC-2998 colon = tested on: HCC-2998 colon
ACHN renal = tested on: ACHN renal
NCI-H522 lung = tested on: NCI-H522 lung
RPMI-8226 leukemia = tested on: RPMI-8226 leukemia
SN12C renal = tested on: SN12C renal
SK-MEL-2 melanoma = tested on: SK-MEL-2 melanoma
HOP-92 NSCLC = tested on: HOP-92 NSCLC
CAKI-1 renal = tested on: CAKI-1 renal
HCT-15 colon = tested on: HCT-15 colon
SF-539 CNS = tested on: SF-539 CNS
SK-OV-3 ovarian = tested on: SK-OV-3 ovarian
SF-268 CNS = tested on: SF-268 CNS
OVCAR-5 ovarian = tested on: OVCAR-5 ovarian
SK-MEL-5 melanoma = tested on: SK-MEL-5 melanoma
HS 578T breast = tested on: HS 578T breast
NCI-H226 lung = tested on: NCI-H226 lung
KM12 colon = tested on: KM12 colon
RXF 393 renal = tested on: RXF 393 renal
PC-3 prostate = tested on: PC-3 prostate
MOLT-4 leukemia = tested on: MOLT-4 leukemia
M14 melanoma = tested on: M14 melanoma
SF-295 CNS = tested on: SF-295 CNS
U251 CNS = tested on: U251 CNS
UACC-62 melanoma = tested on: UACC-62 melanoma
OVCAR-8 ovarian = tested on: OVCAR-8 ovarian
SNB-19 CNS = tested on: SNB-19 CNS
K-562 leukemia = tested on: K-562 leukemia
IGROV1 ovarian = tested on: IGROV1 ovarian
SW-620 colon = tested on: SW-620 colon
COLO 205 colon = tested on: COLO 205 colon
HL-60(TB) leukemia = tested on: HL-60(TB) leukemia
CCRF-CEM leukemia = tested on: CCRF-CEM leukemia
A549 NSCLC = tested on: A549 NSCLC
SK-MEL-28 melanoma = tested on: SK-MEL-28 melanoma
LOX IMVI melanoma = tested on: LOX IMVI melanoma
UO-31 renal = tested on: UO-31 renal
BT-549 breast = tested on: BT-549 breast
NCI-H460 lung = tested on: NCI-H460 lung
NCI-H23 lung = tested on: NCI-H23 lung
NCI/ADR-RES ovarian = tested on: NCI/ADR-RES ovarian
A498 renal = tested on: A498 renal

SMILES: O=C(N/N=C/c1ccc([N+](=O)[O-])cc1)Nc1ccc(Br)cc1
- TGI (HT29 colon): > 100 µM
- TGI (OVCAR-3 ovarian): > 100 µM
- TGI (HCT-116 colon): > 100 µM
- TGI (OVCAR-4 ovarian): > 100 µM
- TGI (MCF7 breast): > 100 µM
- TGI (SR leukemia): > 100 µM
- TGI (MALME-3M melanoma): > 100 µM
- TGI (TK-10 renal): > 100 µM
- TGI (MDA-MB-231 breast): > 100 µM
- TGI (DU-145 prostate): > 100 µM
- TGI (786-0 renal): > 100 µM
- TGI (UACC-257 melanoma): > 100 µM
- TGI (MDA-MB-435): > 100 µM
- TGI (HOP-62 NSCLC): > 100 µM
- TGI (T-47D breast): > 100 µM
- TGI (MDA-N): > 100 µM
- TGI (EKVX NSCLC): > 100 µM
- TGI (SNB-75 CNS): > 100 µM
- TGI (HCC-2998 colon): 90.9 µM
- TGI (ACHN renal): > 100 µM
- TGI (NCI-H522 lung): > 100 µM
- TGI (RPMI-8226 leukemia): > 100 µM
- TGI (SN12C renal): > 100 µM
- TGI (SK-MEL-2 melanoma): > 100 µM
- TGI (HOP-92 NSCLC): > 100 µM
- TGI (CAKI-1 renal): > 100 µM
- TGI (HCT-15 colon): > 100 µM
- TGI (SF-539 CNS): > 100 µM
- TGI (SK-OV-3 ovarian): > 100 µM
- TGI (SF-268 CNS): > 100 µM
- TGI (OVCAR-5 ovarian): > 100 µM
- TGI (SK-MEL-5 melanoma): > 100 µM
- TGI (HS 578T breast): > 100 µM
- TGI (NCI-H226 lung): > 100 µM
- TGI (KM12 colon): > 100 µM
- TGI (RXF 393 renal): > 100 µM
- TGI (PC-3 prostate): > 100 µM
- TGI (MOLT-4 leukemia): > 100 µM
- TGI (M14 melanoma): > 100 µM
- TGI (SF-295 CNS): > 100 µM
- TGI (U251 CNS): > 100 µM
- TGI (UACC-62 melanoma): > 100 µM
- TGI (OVCAR-8 ovarian): > 100 µM
- TGI (SNB-19 CNS): > 100 µM
- TGI (K-562 leukemia): > 100 µM
- TGI (IGROV1 ovarian): > 100 µM
- TGI (SW-620 colon): > 100 µM
- TGI (COLO 205 colon): > 100 µM
- TGI (HL-60(TB) leukemia): > 100 µM
- TGI (CCRF-CEM leukemia): 84.5 µM
- TGI (A549 NSCLC): > 100 µM
- TGI (SK-MEL-28 melanoma): > 100 µM
- TGI (LOX IMVI melanoma): > 100 µM
- TGI (UO-31 renal): > 100 µM
- TGI (BT-549 breast): > 100 µM
- TGI (NCI-H460 lung): > 100 µM
- TGI (NCI-H23 lung): > 100 µM
- TGI (NCI/ADR-RES ovarian): > 100 µM

SMILES: O=C1OC(C2(O)OC(=O)c3ccccc32)c2ccccc21 (centres undefined)
- TGI (HT29 colon): > 100 µM
- TGI (OVCAR-3 ovarian): > 100 µM
- TGI (HCT-116 colon): > 100 µM
- TGI (OVCAR-4 ovarian): > 100 µM
- TGI (MCF7 breast): > 100 µM
- TGI (SR leukemia): > 100 µM
- TGI (TK-10 renal): > 100 µM
- TGI (MDA-MB-231 breast): > 100 µM
- TGI (DU-145 prostate): > 100 µM
- TGI (786-0 renal): > 100 µM
- TGI (UACC-257 melanoma): > 100 µM
- TGI (MDA-MB-435): > 100 µM
- TGI (HOP-62 NSCLC): > 100 µM
- TGI (T-47D breast): > 100 µM
- TGI (MDA-N): > 100 µM
- TGI (EKVX NSCLC): > 100 µM
- TGI (SNB-75 CNS): > 100 µM
- TGI (HCC-2998 colon): > 100 µM
- TGI (ACHN renal): > 100 µM
- TGI (NCI-H522 lung): > 100 µM
- TGI (RPMI-8226 leukemia): > 100 µM
- TGI (SN12C renal): > 100 µM
- TGI (SK-MEL-2 melanoma): > 100 µM
- TGI (HOP-92 NSCLC): > 100 µM
- TGI (CAKI-1 renal): > 100 µM
- TGI (HCT-15 colon): > 100 µM
- TGI (SF-539 CNS): > 100 µM
- TGI (SK-OV-3 ovarian): > 100 µM
- TGI (SF-268 CNS): > 100 µM
- TGI (OVCAR-5 ovarian): > 100 µM
- TGI (SK-MEL-5 melanoma): > 100 µM
- TGI (A498 renal): > 100 µM
- TGI (HS 578T breast): > 100 µM
- TGI (NCI-H226 lung): > 100 µM
- TGI (KM12 colon): > 100 µM
- TGI (RXF 393 renal): > 100 µM
- TGI (PC-3 prostate): > 100 µM
- TGI (MOLT-4 leukemia): > 100 µM
- TGI (M14 melanoma): > 100 µM
- TGI (SF-295 CNS): > 100 µM
- TGI (U251 CNS): > 100 µM
- TGI (UACC-62 melanoma): > 100 µM
- TGI (OVCAR-8 ovarian): > 100 µM
- TGI (SNB-19 CNS): > 100 µM
- TGI (IGROV1 ovarian): > 100 µM
- TGI (SW-620 colon): > 100 µM
- TGI (COLO 205 colon): > 100 µM
- TGI (HL-60(TB) leukemia): > 100 µM
- TGI (A549 NSCLC): > 100 µM
- TGI (SK-MEL-28 melanoma): > 100 µM
- TGI (LOX IMVI melanoma): > 100 µM
- TGI (UO-31 renal): > 100 µM
- TGI (BT-549 breast): > 100 µM
- TGI (NCI-H460 lung): > 100 µM
- TGI (NCI-H23 lung): > 100 µM
- TGI (NCI/ADR-RES ovarian): > 100 µM
